Entries after “also recorded” stand apart in the source; their conditions may differ. Read-outs that look alike come from different tables or passages of the source.

The subject of one assay is Trib2-OE cells. Kind of assay: Enzalutamide sensitivity of Trib2-overexpressing prostate cancer cells. The class given is cell-based, human. The conditions noted are these: clinically relevant doses. The text has this:
Prostate cancer cells were transfected with full length human gene to overexpress Trib2 (FIG. 18). […] Trib2 siRNA was used in parallel experiments as a positive control.

For assay [1], the system named is LNCaP-ENR cells. Description: MTS/PES cell viability assay, ERPC cells. As to conditions: LNCaP-ENR cells, varying doses, 72 hours, MTS/PES; listed as ledipasvir. The class given is cell-based, human. Here is the method:
Plates were incubated for 72 hours at 37° C. in a CO2 incubator. Cell viability was measured by MTS/PES cell titer assay (Promega Corp., Madison, WI).

Assay [2] concerns LNCaP-ENR cells. Description: Soft-agar colony formation assay. As to conditions: LNCaP-ENR (ERPC) cells, three weeks; DCV at 8 μM. The class given is cell-based, human. Here is the method:
Effect of DCV on soft-agar colony formation was also analyzed. LNCaP-ENR cells (10,000 per well in 6-well plates) were plated in 0.3% soft-agar on top of a base layer of 0.6% agar. The cells were treated with DCV and incubated at 37° C. for three weeks in the CO2 incubator. Cells were given fresh media and drug every fourth day. At the end of the incubation period, colonies were stained with 0.025% crystal violet, and pictures of colonies were taken with a Nikon digital camera at ×200. Image processing was done using Q-Capture Pro-7 software. Exemplary methods of the foregoing technique can be found in Sarveswaran, Sivalokanathan et al. “Inhibition of 5-lipoxygenase downregulates stemness and kills prostate cancer stem cells by triggering apoptosis via activation of c-Jun N-terminal kinase.” Oncotarget vol. 10, 4 424-436. 11 Jan. 2019, the disclosure of which is incorporated herein by reference in its entirety.

For assay [3], the system named is LNCaP-ENR and MR49F ERPC cells. Kind of assay: In vitro invasion through extracellular matrix. It counts as cell-based, human. As to conditions: LNCaP-ENR and MR49F ERPC cells (data not shown).
Assay [4] has as its system LNCaP-ENR cells. Description: Apoptosis by Annexin V binding, flow cytometry. It counts as cell-based, human. The conditions noted are these: ERPC cells. Here is the method:
To test DCV effects on cancer cell apoptosis, LNCaP-ENR cells were treated with 8 μM DCV for 24 hours and analyzed by flow cytometry. Treatment with DCV indicated increased Annexin V binding, a read-out for apoptosis (FIG. 3C).
(In general: In flow cytometry, cells or beads pass a laser one at a time.)

For assay [5], the target named is T1, Trib2-Luciferase (Luc-Trib2) fusion (Homo sapiens, UniProt Q92519).
T1 sequence (Q92519 with tags, fused parts or gaps): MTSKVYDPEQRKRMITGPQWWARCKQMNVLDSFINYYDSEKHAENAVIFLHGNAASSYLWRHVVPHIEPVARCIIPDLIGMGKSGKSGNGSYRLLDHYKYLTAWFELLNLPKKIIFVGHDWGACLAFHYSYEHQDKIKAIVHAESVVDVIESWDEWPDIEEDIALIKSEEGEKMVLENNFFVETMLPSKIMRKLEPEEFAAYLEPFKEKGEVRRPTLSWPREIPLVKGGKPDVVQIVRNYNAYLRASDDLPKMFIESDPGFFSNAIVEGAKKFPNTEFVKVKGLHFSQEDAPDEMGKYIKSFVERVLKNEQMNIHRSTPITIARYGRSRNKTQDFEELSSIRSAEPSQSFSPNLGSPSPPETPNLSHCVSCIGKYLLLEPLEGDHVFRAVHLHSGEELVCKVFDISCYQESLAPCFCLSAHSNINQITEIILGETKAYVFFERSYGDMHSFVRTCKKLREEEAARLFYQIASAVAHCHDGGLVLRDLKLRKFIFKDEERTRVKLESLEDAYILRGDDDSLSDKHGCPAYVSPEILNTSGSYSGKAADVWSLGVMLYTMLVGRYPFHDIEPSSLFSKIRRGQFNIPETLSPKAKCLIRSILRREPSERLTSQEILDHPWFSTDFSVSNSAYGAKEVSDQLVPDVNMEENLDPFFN
As to conditions: 10 μM, 24 hours, HFF-Trib2-Luc cells.

Assay [6] concerns the target T1, Trib2-Luciferase (Luc-Trib2) fusion. Kind of assay: cell-based. As to conditions: HFF, read-out: Luciferase activity (%).
The next assay addresses T2, TRIB2 (Homo sapiens, UniProt Q92519).
T2 sequence (Q92519 1-343): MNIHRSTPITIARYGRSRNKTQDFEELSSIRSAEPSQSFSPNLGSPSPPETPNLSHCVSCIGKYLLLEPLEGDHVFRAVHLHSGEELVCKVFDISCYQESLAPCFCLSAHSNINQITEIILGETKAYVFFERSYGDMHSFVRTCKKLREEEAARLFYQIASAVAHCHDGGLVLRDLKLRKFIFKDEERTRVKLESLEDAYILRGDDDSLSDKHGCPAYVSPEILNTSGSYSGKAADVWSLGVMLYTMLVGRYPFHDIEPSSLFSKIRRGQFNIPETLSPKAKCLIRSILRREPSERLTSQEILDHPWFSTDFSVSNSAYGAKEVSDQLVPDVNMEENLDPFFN
Description: Western blot of TRIB2 protein levels in cancer cells. The class given is cell-based. Also noted: Whole cell lysate proteins were analyzed by Western blot; endogenous in cells; host or cells: LNCaP-ENR (enzalutamide-resistant LNCaP) cells. As to conditions: LNCaP-ENR cells, 10 μM, 24 hours, Western blot. The protocol:
Enzalutamide-resistant prostate cancer (ERPC) cells (LNCaP-ENR cells) were plated and treated with 10 μM each of various compounds for 24 hours. Exemplary methods for developing and using LNCaP-ENR cells is disclosed in Monga, J., Subramani, D., Bharathan, A., and Ghosh, J. (2020) “Pharmacological and genetic targeting of 5-lipoxygenase interrupts c-Myc oncogenic signaling and kills enzalutamide-resistant prostate cancer cells via apoptosis.” Scientific Reports 10: 6649, the disclosure of which is incorporated herein by reference in its entirety. Whole cell lysate proteins were analyzed by Western blot. TRIB2 antibody was used to detect protein levels of TRIB2 and GAPDH was used as loading control. Monoclonal anti-Trib2 antibody was purchased from Santa Cruz Biotech, Santa Cruz, CA.
LNCaP-ENR cells were treated with varying doses (4 μM, 8 μM, or 12 μM) of DCV for 24 hours. Effects on TRIB2 protein levels and its downstream targets (e.g., pAkt, Bcl-xL, Survivin, and FOXO3) were analyzed by Western blot. GAPDH was used as loading control. Protein levels of TRIB2, pAKT (S473), Bcl-xL, and Survivin were reduced in cells treated with 12 μM of DCV compared to control-treated cells (FIG. 3A). Levels of FOXO3 protein were increased at 12 μM of DCV treatment compared to control treatment. This was expected, as FOXO3 level is known to be decreased by Trib2. These effects on cellular protein levels were DCV concentration-dependent, with the most pronounced effects observed at the highest concentration tested (12 μM).
A general note: Immunoblotting shows a protein as a band on a membrane.

For the molecule `CNC(=O)c1ccc(N2C(=S)N(c3ccc(C#N)c(C(F)(F)F)c3)C(=O)C2(C)C)cc1F` [enzalutamide], the “response of Trib2-OE cells to enzalutamide” value in the assay on Trib2-OE cells is recorded as “completely resistant”.

Consider `COC(=O)N[C@H](C(=O)N1CC2(CC2)C[C@H]1c1nc(-c2ccc3c(c2)C(F)(F)c2cc(-c4ccc5[nH]c([C@@H]6[C@H]7CC[C@H](C7)N6C(=O)[C@@H](NC(=O)OC)C(C)C)nc5c4)ccc2-3)c[nH]1)C(C)C` [Ledipasvir], for which the Cell viability result in the assay on LNCaP-ENR cells [1] was “not”. The soft-agar colony formation result in the assay with LNCaP-ENR cells [2] is recorded as “completely ineffective”. In addition, the “in vitro invasion through extracellular matrix” value in assay [3] was “completely ineffective”. Moreover, the “signs of apoptotic features” value in the assay with LNCaP-ENR cells [4] is given as “did not show any signs of apoptotic features”. Also, the “inhibition of Trib2-luciferase activity (in words)” value in assay [5] is “completely ineffective”; in assay [5] (listed as ledipasvir) it was “no inhibition; also recorded: not effective”. For the same molecule, in assay [6], the activity at 10 µM is 100%. In addition, the TRIB2 protein levels entry on TRIB2 is given as “neither downregulates TRIB2”.

Source of the values: patent US12721838B2 (Henry Ford Health System, priority 2020, dated 2026).
